Reference: US9944634B2, “Pyrazolopyridine derivatives as TTX-S blockers” (RaQualia Pharma Inc., priority 2012, dated 2018)
Read-outs that look alike come from different tables or passages of the source.

Key:
Type in all cases: cell-based
human Nav1.5 channels = target: T1, human Nav1.5 channels (Homo sapiens, UniProt Q14524); assay: FRET assay, human Nav1.5 channels; conditions: read-out: activity against Nav1.5 (IC50)
T1 construct: expressed in transfected cells; host or cells: HEK293 cells
Method: (§1) The inhibitory activities of compounds against voltage gated sodium channels are determined by methodology well known in the art.
(§2) The ability of the pyrazolopyridine derivatives of the formula (I) to inhibit the Nav1.3, Nav1.7 and Nav1.5 channels is measured by Fluorescence Resonance Energy Transfer (FRET) assay and electrophysiology assay described below.
(§3) This screen is used to determine the effects of compounds on human Nav1.3, human Nav1.7, and human Nav1.5 channels, utilising electrical field stimulation (EFS) system in 96-well plate format on FDSS (Hamamatsu Photonics) platform. The change of membrane potential is monitored with FRET dye pair, oxonol (DiSBAC2(3)) and coumarin (CC2-DMPE).
Each HEK293 cells expressing human Nav1.3 channels and HEK293 cells expressing human Nav1.5 channels are grown in T225 flasks, in a 5% CO2 humidified incubator to about 80% confluence. Media composition consists of Dulbecco's Modified Eagle Medium (high glucose), 10% FCS, 100 units/mL penicillin, 100 microgram/mL streptomycin and 500 microgram/mL Geneticine. […]
(§4) The data are analyzed and reported as normalized ratios of intensities measured at […]. […]
(§5) This analysis is performed using a computerized specific program designed for FDSS generated data. Fluorescence ratio values are plotted using XLfit to determine an IC50 value for each compound.

human Nav1.7 (hSCN9A) = target: T2, human Nav1.7 (hSCN9A) (Homo sapiens, UniProt Q15858); assay: Electrophysiology assay (whole cell patch clamp), human Nav1.7; conditions: dissociation constant for the inactivated state, CHO cells, read-out: activity (Ki) against Nav1.7
T2 construct: expressed in transfected cells; host or cells: CHO cells
T2 sequence (Q15858 whole entry): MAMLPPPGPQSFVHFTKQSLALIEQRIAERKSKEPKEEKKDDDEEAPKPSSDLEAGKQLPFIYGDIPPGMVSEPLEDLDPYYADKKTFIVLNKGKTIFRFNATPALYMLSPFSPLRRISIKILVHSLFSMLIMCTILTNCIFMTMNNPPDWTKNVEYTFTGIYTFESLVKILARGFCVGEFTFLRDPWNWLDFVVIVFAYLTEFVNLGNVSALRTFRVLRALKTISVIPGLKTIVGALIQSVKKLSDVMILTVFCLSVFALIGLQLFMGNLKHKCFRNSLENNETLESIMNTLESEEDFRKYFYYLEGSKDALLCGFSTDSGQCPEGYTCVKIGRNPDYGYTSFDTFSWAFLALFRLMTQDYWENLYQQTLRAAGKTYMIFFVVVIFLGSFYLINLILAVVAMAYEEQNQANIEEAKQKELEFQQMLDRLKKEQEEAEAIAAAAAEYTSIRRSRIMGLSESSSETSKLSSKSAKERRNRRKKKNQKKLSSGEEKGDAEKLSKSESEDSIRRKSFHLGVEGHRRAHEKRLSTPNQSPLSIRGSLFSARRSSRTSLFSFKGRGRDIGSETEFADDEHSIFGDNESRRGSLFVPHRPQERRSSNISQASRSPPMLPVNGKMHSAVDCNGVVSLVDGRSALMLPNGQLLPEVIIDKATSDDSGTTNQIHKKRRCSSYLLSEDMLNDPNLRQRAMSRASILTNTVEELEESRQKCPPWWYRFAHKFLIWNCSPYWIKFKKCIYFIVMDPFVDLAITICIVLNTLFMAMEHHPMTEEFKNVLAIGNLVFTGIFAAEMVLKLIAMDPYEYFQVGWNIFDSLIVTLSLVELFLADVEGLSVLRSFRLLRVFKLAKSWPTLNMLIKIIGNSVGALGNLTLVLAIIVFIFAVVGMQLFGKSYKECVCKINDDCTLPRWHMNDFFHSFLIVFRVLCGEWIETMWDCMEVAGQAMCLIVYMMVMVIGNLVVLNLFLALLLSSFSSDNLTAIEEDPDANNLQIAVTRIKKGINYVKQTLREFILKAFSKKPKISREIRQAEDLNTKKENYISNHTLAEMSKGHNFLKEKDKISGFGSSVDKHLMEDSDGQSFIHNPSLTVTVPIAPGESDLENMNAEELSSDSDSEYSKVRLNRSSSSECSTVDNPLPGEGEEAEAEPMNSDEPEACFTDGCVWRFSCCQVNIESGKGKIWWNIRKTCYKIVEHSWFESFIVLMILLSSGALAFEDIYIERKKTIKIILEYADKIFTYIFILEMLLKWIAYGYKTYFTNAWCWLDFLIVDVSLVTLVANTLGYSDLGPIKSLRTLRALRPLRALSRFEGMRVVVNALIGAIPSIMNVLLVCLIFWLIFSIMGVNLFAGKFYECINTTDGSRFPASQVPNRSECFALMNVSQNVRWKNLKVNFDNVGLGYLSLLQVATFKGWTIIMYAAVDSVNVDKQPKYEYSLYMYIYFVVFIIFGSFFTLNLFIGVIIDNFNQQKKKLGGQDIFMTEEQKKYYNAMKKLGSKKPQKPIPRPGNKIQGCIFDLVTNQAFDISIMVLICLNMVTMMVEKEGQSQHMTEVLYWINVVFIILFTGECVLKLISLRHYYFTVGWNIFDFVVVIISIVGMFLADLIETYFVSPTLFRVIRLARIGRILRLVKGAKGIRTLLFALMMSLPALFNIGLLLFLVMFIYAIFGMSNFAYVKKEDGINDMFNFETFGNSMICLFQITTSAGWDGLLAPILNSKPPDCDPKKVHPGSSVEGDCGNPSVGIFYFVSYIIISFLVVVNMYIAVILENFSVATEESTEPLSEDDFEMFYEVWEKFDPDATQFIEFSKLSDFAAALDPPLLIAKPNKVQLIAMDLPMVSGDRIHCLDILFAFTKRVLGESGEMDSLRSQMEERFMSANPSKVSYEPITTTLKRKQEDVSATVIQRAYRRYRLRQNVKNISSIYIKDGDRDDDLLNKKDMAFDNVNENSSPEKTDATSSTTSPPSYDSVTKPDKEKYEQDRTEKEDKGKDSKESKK
Method: (§6) Electrophysiology Assay for Nays
(§7) Whole cell patch clamp recording is used to assess the efficacy or selectivity of Na channel blocker on human Nav1.3 (hSCN3A) expressing HEK293 cells or human Nav1.7 (hSCN9A) expressing CHO cells. Human Nav1.3 expressing HEK293 cells are grown in growth media which contain: DMEM, 10% heat-inactivated FBS (Hyclone Laboratories Inc), 100 microgram/mL penicillin/100U/mL streptomycin, 150 microgram/mL Zeocin, and 3 microgram/mL Geneticin. Human Nav1.7 expressing CHO cells are grown in growth media which contain: HAMF-12, 9% heat-inactivated FBS (Hyclone Laboratories Inc), and 100 microgram/mL penicillin/100 U/mL streptomycin, and 100 microgram/mL hygromycin. […]
(§8) The normalized steady-state inactivation curve is constructed using 2 sec (for vehicle) or 60 sec (for drugs) conditioning pulse to different potentials followed immediately by the test pulse to −10 mV. […] The affinity of drugs to resting state of Na channels (Kresting or Kr) is assessed by 30 msec test pulse from a negative holding potential of -120 or −130 mV, where virtually all channels are in the resting state. Kr value is calculated by a conventional 1:1 binding model: Kresting(Kr)={[drug]Imax,drug/(Imax,control−Imax,drug)} [Math.2] • where Kresting(=Kr) is a dissociation constant for the resting state and [drug] is compound concentration. […]

human Nav1.3 (hSCN3A) = target: T3, human Nav1.3 (hSCN3A) (Homo sapiens, UniProt Q9NY46); assay: Electrophysiology assay (whole cell patch clamp), human Nav1.3; conditions: dissociation constant for the inactivated state, HEK293 cells, read-out: activity (Ki) against Nav1.3
T3 construct: expressed in transfected cells; host or cells: HEK293 cells
Method: as §6, §7, §8

human Nav1.7 channels = target: T4, human Nav1.7 channels (Homo sapiens, UniProt Q15858); assay: FRET assay, human Nav1.7 channels
T4 construct: expressed in transfected cells; host or cells: CHO cells
T4 sequence (Q15858 whole entry): as above
Method: as §1, §2, §3
CHO cells expressing human Nav1.7 channels are grown in T225 flasks, in a 5% CO2 humidified incubator to about 80% confluence. Media composition consists of HAM/F12 with Glutamax I, 10% FCS, 100 units/mL penicillin and 100 microgram/mL hygromycin. […]
as §4, §5

T1 sequence (Q14524 whole entry): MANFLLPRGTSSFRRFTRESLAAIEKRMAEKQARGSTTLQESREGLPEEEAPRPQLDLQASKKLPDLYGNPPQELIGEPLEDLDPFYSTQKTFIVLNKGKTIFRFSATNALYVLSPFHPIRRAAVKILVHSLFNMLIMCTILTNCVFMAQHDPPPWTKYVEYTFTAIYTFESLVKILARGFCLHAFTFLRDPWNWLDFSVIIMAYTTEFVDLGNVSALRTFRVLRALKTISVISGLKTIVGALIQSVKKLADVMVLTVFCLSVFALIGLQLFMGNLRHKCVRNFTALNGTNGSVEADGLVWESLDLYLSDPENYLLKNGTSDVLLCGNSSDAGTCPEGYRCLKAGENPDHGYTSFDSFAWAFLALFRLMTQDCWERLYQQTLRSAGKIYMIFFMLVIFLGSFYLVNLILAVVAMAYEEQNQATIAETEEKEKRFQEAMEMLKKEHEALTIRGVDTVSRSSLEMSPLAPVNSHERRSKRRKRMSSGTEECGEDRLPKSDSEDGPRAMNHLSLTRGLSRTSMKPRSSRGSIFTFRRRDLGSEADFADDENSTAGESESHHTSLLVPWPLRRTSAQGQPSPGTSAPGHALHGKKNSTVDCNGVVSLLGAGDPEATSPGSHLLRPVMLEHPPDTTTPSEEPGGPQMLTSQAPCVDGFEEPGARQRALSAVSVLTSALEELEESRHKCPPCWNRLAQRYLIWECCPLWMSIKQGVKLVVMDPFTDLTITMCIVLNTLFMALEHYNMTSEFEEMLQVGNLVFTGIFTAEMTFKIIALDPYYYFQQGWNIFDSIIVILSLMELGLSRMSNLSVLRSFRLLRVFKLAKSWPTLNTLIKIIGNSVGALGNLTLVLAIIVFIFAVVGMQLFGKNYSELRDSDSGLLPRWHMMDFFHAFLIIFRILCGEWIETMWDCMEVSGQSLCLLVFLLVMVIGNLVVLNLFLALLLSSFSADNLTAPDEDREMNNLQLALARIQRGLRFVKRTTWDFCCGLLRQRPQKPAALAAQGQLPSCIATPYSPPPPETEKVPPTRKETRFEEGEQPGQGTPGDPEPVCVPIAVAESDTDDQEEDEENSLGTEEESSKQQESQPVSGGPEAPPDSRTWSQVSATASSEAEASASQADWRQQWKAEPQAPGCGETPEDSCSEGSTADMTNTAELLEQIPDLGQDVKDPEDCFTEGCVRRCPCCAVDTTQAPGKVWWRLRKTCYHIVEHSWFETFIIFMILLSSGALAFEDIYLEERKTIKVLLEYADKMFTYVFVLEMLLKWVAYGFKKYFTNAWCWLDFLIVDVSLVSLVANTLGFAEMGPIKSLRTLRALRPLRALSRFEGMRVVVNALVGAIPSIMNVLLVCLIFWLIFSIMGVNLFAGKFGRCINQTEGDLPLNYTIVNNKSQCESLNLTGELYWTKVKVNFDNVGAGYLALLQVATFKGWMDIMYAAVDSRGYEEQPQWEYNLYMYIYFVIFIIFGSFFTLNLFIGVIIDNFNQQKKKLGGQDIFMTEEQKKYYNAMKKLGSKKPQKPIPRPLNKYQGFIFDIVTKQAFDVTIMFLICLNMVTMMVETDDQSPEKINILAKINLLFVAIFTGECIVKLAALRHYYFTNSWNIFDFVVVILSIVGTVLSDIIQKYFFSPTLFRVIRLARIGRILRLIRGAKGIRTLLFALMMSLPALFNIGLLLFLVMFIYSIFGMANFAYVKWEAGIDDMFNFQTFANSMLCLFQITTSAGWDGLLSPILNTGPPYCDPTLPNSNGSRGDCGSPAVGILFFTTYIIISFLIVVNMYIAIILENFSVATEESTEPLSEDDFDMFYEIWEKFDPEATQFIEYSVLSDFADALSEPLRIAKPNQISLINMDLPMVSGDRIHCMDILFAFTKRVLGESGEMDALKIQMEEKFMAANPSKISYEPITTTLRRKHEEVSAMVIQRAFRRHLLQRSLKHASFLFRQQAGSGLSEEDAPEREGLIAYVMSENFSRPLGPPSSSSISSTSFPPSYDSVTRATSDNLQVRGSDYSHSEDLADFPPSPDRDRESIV

Ki (human Nav1.7 (hSCN9A)): 340 nM
Ki (human Nav1.3 (hSCN3A)): 570 nM
IC50 (human Nav1.7 channels; bound holds for Nav1.7 and/or Nav1.3, not stated which, read-out: IC50 against Nav1.7 and/or Nav1.3): < 1000 nM
IC50 (human Nav1.7 channels; read-out: activity against Nav1.7 (IC50)): 380 nM
SMILES: Cc1cc(Cn2cc3c(NC(=O)C(C)(C)O)nccc3n2)cnc1OCC(F)(F)F [Example 2, 2-hydroxy-2-methyl-N-(2-((5-methyl-6-(2,2,2-trifluoroethoxy)pyridin-3-yl)methyl)-2H-pyrazolo[4,3-c]pyridin-4-yl)propanamide]
IC50 (human Nav1.5 channels): > 30000 nM
